Measurements from patent EP1137645B1, “ALPHA-METHYLBENZYL-CONTAINING THIOUREA INHIBITORS OF HERPES VIRUSES CONTAINING A […] GROUP” (Wyeth, priority 1998, dated 2000).
Converted amounts (≈) assume the structure as drawn. Read-outs that look alike come from different tables or passages of the source.

What was measured:
[1] = test system: HCMV recombinant mutant virus whose genome contains the prokaryotic beta-glucuronidase gene; test: microbe, parasite or virus in culture; format: cell-based, human cytomegalovirus; settings: Human betaherpesvirus 5, Fibroblast
Method in brief: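 Antiviral IC50 estimated from reduced reporter activity across compound amounts: lysates prepared 96 h after infection were tested with p-nitrophenyl- or methylumbelliferyl-glucuronide. Cells were human foreskin fibroblasts, infected alongside inhibitor with HCMV (e.g. RV145) expressing viral promoter-driven beta-glucuronidase.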

HSV- I = test: HSV antiviral (ELISA) assay; format: cell-based; settings: read-out: IC50 (ug/ml) HSV
Method in brief: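 IC50 from fluorescence versus untreated control in a cell ELISA: anti-glycoprotein D antibody, β-galactosidase-conjugated secondary, 4-methyl umbelliferone read at 365/450 nm. Vero cells (2% FBS DMEM) received compound 30 min pre-infection with HSV-1 at MOI 0.006, fixed ~24 h post-infection.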

VZV strain Ellen = test: VZV antiviral (ELISA) assay; format: cell-based
Method in brief: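 HFF cells infected with VZV Ellen at multiplicity below 0.1 overnight, then mixed infected/uninfected cells seeded with compound in DMEM/2% FBS and incubated three days at 37°C, 5% CO2.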

[2] = read-out: IC50 ug/ml HCMV, HCMV, human foreskin fibroblasts
[3] = Human alphaherpesvirus 3, HFF, read-out: % inhibition 10 ug/ml VZV
[4] = Human alphaherpesvirus 3, HFF, read-out: IC50 (ug/ml) VZV
[5] = Human alphaherpesvirus 3, read-out: % inhibition 10 ug/ml VZV, 10 ug/ml, VZV strain Ellen, HFF cells, ELISA
[6] = Human alphaherpesvirus 3, VZV strain Ellen, HFF cells, ELISA, read-out: IC50 (ug/ml) VZV

`CSc1ccc(NC(=S)Nc2ccc(NC(=O)c3ccccc3F)cc2Cl)cc1Cl` [Example 460, N-{3-Chloro-4-[3-(3-chloro-4-methylsulfanyl-phenyl)-thioureido]-phenyl}-2-fluoro-benzamide] was tested, and the IC50 [1, 2] was 2 µg/mL (≈ 4.16 µM), the IC50 (HSV- I; HSV- I, Vero cells, ELISA) was 0.09 µg/mL (≈ 0.187 µM) and the inhibition at 10 µg/mL (VZV strain Ellen; [3]) was 50%. It also gave an IC50 (VZV strain Ellen; [4]) greater than 10 µg/mL.
`N#Cc1cccc(NC(=S)Nc2ccc(NC(=O)c3ccccc3F)cc2)c1` [Example 461, N-{4-[3-(3-Cyano-phenyl)-thioureido]-phenyl}-2-fluoro-benzamide] gave an IC50 ([1]; read-out: IC50 ug/ml HCMV) greater than 10 µg/mL, an IC50 (HSV- I; HSV- I, Vero cells, ELISA) greater than 10 µg/mL and an inhibition at 10 µg/mL (VZV strain Ellen; [5]) of 33%. For the same molecule, the IC50 (VZV strain Ellen; [6]) was greater than 10 µg/mL.
With `NNC(=O)c1cccc(NC(=S)Nc2ccc(NC(=O)c3ccccc3F)cc2)c1` [Example 463, 2-Fluoro-N-{4-[3-(3-hydrazinocarbonyl-phenyl)-thioureido]-phenyl}-benzamide] the IC50 ([1]; read-out: IC50 ug/ml HCMV) was greater than 10 µg/mL, the IC50 (HSV- I; HSV- I, Vero cells, ELISA) was greater than 10 µg/mL and the inhibition at 10 µg/mL (VZV strain Ellen; [5]) was 19%. It also gave an IC50 (VZV strain Ellen; [6]) greater than 10 µg/mL.
Work on `Nc1c(Cl)cccc1NC(=S)Nc1ccc(NC(=O)c2c(F)cccc2F)cc1` [Example 465, N-{4-[3-(2-Amino-3-chloro-phenyl)-thioureido]-phenyl}-2,6-difluoro-benzamide] yielded an IC50 [1, 2] greater than 10 µg/mL, an IC50 (HSV- I; HSV- I, Vero cells, ELISA) greater than 10 µg/mL and an inhibition at 10 µg/mL (VZV strain Ellen; [3]) of 31%. It also gave an IC50 (VZV strain Ellen; [4]) greater than 10 µg/mL.
`O=C(Nc1ccc(NC(=S)Nc2cccc(O)c2)cc1)c1ccccc1F` [Example 475, 2-Fluoro-N-{4-[3-(3-hydroxy-phenyl)-thioureido]-phenyl}-benzamide] gave an IC50 ([1]; read-out: IC50 ug/ml HCMV) greater than 10 µg/mL, an IC50 (HSV- I; HSV- I, Vero cells, ELISA) of 5 µg/mL (≈ 13.1 µM) and an inhibition at 10 µg/mL (VZV strain Ellen; [5]) of 28%. It also gave an IC50 (VZV strain Ellen; [6]) greater than 10 µg/mL.
Work on `O=C(Nc1ccc(NC(=S)Nc2cccc(CO)c2)cc1)c1ccccc1F` [Example 476, 2-Fluoro-N-{4-[3-(3-hydroxymethyl-phenyl)-thioureido]-phenyl}-benzamide] yielded an IC50 ([1]; read-out: IC50 ug/ml HCMV) greater than 10 µg/mL, an IC50 (HSV- I; HSV- I, Vero cells, ELISA) of 10 µg/mL (≈ 25.3 µM) and an inhibition at 10 µg/mL (VZV strain Ellen; [5]) of 21%. It also gave an IC50 (VZV strain Ellen; [6]) greater than 10 µg/mL.
`CC(=O)Nc1cccc(NC(=S)Nc2ccc(NC(=O)c3ccccc3F)cc2)c1` [Example 477, N-{4-[3-(3-Acetylamino-phenyl)-thioureido]-phenyl}-2-fluoro-benzamide] gave an IC50 ([1]; read-out: IC50 ug/ml HCMV) greater than 10 µg/mL, an IC50 (HSV- I; HSV- I, Vero cells, ELISA) greater than 10 µg/mL and an inhibition at 10 µg/mL (VZV strain Ellen; [5]) of 15%. The IC50 (VZV strain Ellen; [6]) was greater than 10 µg/mL.
Molecule `O=C(Nc1ccc(NC(=S)Nc2ccc3scnc3c2)cc1)c1ccccc1F` [Example 484, N-[4-(3-Benzothiazol-5-yl-thioureido)-phenyl]-2-fluoro-benzamide] has an IC50 [1, 2] greater than 10 µg/mL, an IC50 (HSV- I; HSV- I, Vero cells, ELISA) of 0.4 µg/mL (≈ 0.947 µM) and an inhibition at 10 µg/mL (VZV strain Ellen; [3]) of 28%. It also gave an IC50 (VZV strain Ellen; [4]) greater than 10 µg/mL.
`COc1cccc(NC(=S)Nc2ccc(NC(=O)c3ccccc3F)cc2)c1` [Example 487, 2-Fluoro-N-{4-[3-(3-methoxy-phenyl)-thioureido]-phenyl}-benzamide] gave an IC50 ([1]; read-out: IC50 ug/ml HCMV) of 10 µg/mL (≈ 25.3 µM), an IC50 (HSV- I; HSV- I, Vero cells, ELISA) of 4 µg/mL (≈ 10.1 µM) and an inhibition at 10 µg/mL (VZV strain Ellen; [5]) of 48%. For the same molecule, the IC50 (VZV strain Ellen; [6]) was greater than 10 µg/mL.
For `CN(C)c1ccc(Cl)cc1NC(=S)Nc1ccc(NC(=O)c2ccccc2F)cc1` [Example 490, N-{4-[3-(5-Chloro-2-dimethylamino-phenyl)-thioureido]-phenyl}-2-fluoro-benzamide], the IC50 [1, 2] was 2.5 µg/mL (≈ 5.64 µM), the IC50 (HSV- I; HSV- I, Vero cells, ELISA) was 1 µg/mL (≈ 2.26 µM) and the inhibition at 10 µg/mL (VZV strain Ellen; [3]) was 68%. It also gave an IC50 (VZV strain Ellen; [4]) greater than 10 µg/mL.
`CC(N=[N+]=[N-])c1ccc(NC(=S)Nc2ccc(NC(=O)c3ccccc3F)cc2)cc1Cl` (stereo not drawn) [Example 492, N-(4-{3-[4-(1-Azido-ethyl)-3-chloro-phenyl]-thioureido}-phenyl)-2-fluoro-benzamide] gave an IC50 [1, 2] of 2 µg/mL (≈ 4.26 µM), an IC50 (HSV- I; HSV- I, Vero cells, ELISA) greater than 10 µg/mL and an inhibition at 10 µg/mL (VZV strain Ellen; [3]) of 32%. The IC50 (VZV strain Ellen; [4]) was greater than 10 µg/mL.
`O=C(Nc1ccc(NC(=S)Nc2ccc3[nH]cnc3c2)cc1)c1ccccc1F` [Example 496, N-{4-[3-(1H-Benzoimidazol-5-yl)-thioureido]-phenyl}-2-fluoro-benzamide] gave an IC50 ([1]; read-out: IC50 ug/ml HCMV) of 10 µg/mL (≈ 24.7 µM), an IC50 (HSV- I; HSV- I, Vero cells, ELISA) greater than 10 µg/mL and an inhibition at 10 µg/mL (VZV strain Ellen; [5]) of 25%. The IC50 (VZV strain Ellen; [6]) was greater than 10 µg/mL.
Work on `Cc1nc2cc(NC(=S)Nc3ccc(NC(=O)c4ccccc4F)cc3)ccc2[nH]1` [Example 497, 2-Fluoro-N-{4-[3-(2-methyl-1H-benzoimidazol-5-yl)-thioureido]-phenyl}-benzamide] yielded an IC50 ([1]; read-out: IC50 ug/ml HCMV) of 10 µg/mL (≈ 23.8 µM), an IC50 (HSV- I; HSV- I, Vero cells, ELISA) greater than 10 µg/mL and an inhibition at 10 µg/mL (VZV strain Ellen; [5]) of 10%. It also gave an IC50 (VZV strain Ellen; [6]) greater than 10 µg/mL.
Molecule `Nc1nccc(-c2ccc(NC(=S)Nc3ccc(NC(=O)c4ccccc4F)cc3)cc2Cl)n1` [Example 502, N-(4-{3-[4-(2-Amino-pyrimidin-4-yl)-3-chloro-phenyl]-thioureido}-phenyl)-2-fluoro-benzamide] has an IC50 [1, 2] of 1.8 µg/mL (≈ 3.65 µM), an IC50 (HSV- I; HSV- I, Vero cells, ELISA) greater than 10 µg/mL and an inhibition at 10 µg/mL (VZV strain Ellen; [3]) of 13%. It also gave an IC50 (VZV strain Ellen; [4]) greater than 10 µg/mL.
Work on `CN(C)c1c(Cl)cccc1NC(=S)Nc1ccc(NC(=O)c2c(F)cccc2F)cc1` [Example 504, N-{4-[3-(3-Chloro-2-dimethylamino-phenyl)-thioureido]-phenyl}-2,6-difluoro-benzamide] yielded an IC50 [1, 2] of 2 µg/mL (≈ 4.34 µM), an IC50 (HSV- I; HSV- I, Vero cells, ELISA) of 6 µg/mL (≈ 13 µM) and an inhibition at 10 µg/mL (VZV strain Ellen; [3]) of 99%. For the same molecule, the IC50 (VZV strain Ellen; [4]) was 4.5 µg/mL (≈ 9.76 µM).
`O=C(Nc1ccc(NC(=S)NCc2cccc(Cl)c2)cc1)c1ccccc1F` [Example 511, N-{4-[3-(3-Chloro-benzyl)-thioureido]-phenyl}-2-fluoro-benzamide] gave an IC50 [1, 2] greater than 10 µg/mL, an IC50 (HSV- I; HSV- I, Vero cells, ELISA) greater than 10 µg/mL and an inhibition at 10 µg/mL (VZV strain Ellen; [3]) of 10%. It also gave an IC50 (VZV strain Ellen; [4]) greater than 10 µg/mL.
`O=C(Nc1ccc(NC(=S)Nc2cc(C(F)(F)F)cc(C(F)(F)F)c2)cc1)c1ccccc1F` [Example 517, N-{4-[3-(3,5-Bis-trifluoromethyl-phenyl)-thioureido]-phenyl}-2-fluoro-benzamide] was tested, and the IC50 ([1]; read-out: IC50 ug/ml HCMV) was 1.1 µg/mL (≈ 2.19 µM), the IC50 (HSV- I; HSV- I, Vero cells, ELISA) was greater than 10 µg/mL and the inhibition at 10 µg/mL (VZV strain Ellen; [5]) was 5%. For the same molecule, the IC50 (VZV strain Ellen; [6]) was greater than 10 µg/mL.
`Nc1c(Cl)cc(NC(=S)Nc2ccc(NC(=O)c3ccccc3F)cc2)cc1Cl` [Example 518, N-{4-[3-(4-Amino-3,5-dichloro-phenyl)-thioureido]-phenyl}-2-fluoro-benzamide] gave an IC50 [1, 2] of 4 µg/mL (≈ 8.9 µM), an IC50 (HSV- I; HSV- I, Vero cells, ELISA) of 0.25 µg/mL (≈ 0.556 µM) and an inhibition at 10 µg/mL (VZV strain Ellen; [3]) of 32%. For the same molecule, the IC50 (VZV strain Ellen; [4]) was greater than 10 µg/mL.
`Nc1c(Br)cc(NC(=S)Nc2ccc(NC(=O)c3ccccc3F)cc2)cc1Br` [Example 519, N-{4-[3-(4-Amino-3,5-dibromo-phenyl)-thioureido]-phenyl}-2-fluoro-benzamide] showed an IC50 ([1]; read-out: IC50 ug/ml HCMV) of 1.7 µg/mL (≈ 3.16 µM), an IC50 (HSV- I; HSV- I, Vero cells, ELISA) of 0.4 µg/mL (≈ 0.743 µM) and an inhibition at 10 µg/mL (VZV strain Ellen; [5]) of 18%. It also gave an IC50 (VZV strain Ellen; [6]) greater than 10 µg/mL.
`CN(C)c1cc(Cl)cc(NC(=S)Nc2ccc(NC(=O)c3ccccc3F)cc2)c1` [Example 523, N-{4-[3-(3-Chloro-5-dimethylamino-phenyl)-thioureido]-phenyl}-2-fluoro-benzamide] gave an IC50 [1, 2] of 3.2 µg/mL (≈ 7.22 µM), an IC50 (HSV- I; HSV- I, Vero cells, ELISA) of 0.6 µg/mL (≈ 1.35 µM) and an inhibition at 10 µg/mL (VZV strain Ellen; [3]) of 75%. The IC50 (VZV strain Ellen; [4]) was 4 µg/mL (≈ 9.03 µM).
In the case of `O=C(Nc1ccc(NC(=S)Nc2ccc3[nH]nnc3c2)cc1)c1c(F)cccc1F` [Example 527, N-{4-[3-(1H-Benzotriazol-5-yl)-thioureido]-phenyl}-2,6-difluoro-benzamide], the IC50 ([1]; read-out: IC50 ug/ml HCMV) is reported as greater than 10 µg/mL, the IC50 (HSV- I; HSV- I, Vero cells, ELISA) is reported as greater than 10 µg/mL and the inhibition at 10 µg/mL (VZV strain Ellen; [5]) is reported as 20%. For the same molecule, the IC50 (VZV strain Ellen; [6]) was greater than 10 µg/mL.
`O=C(Nc1ccc(NC(=S)Nc2cc(Br)cc(C(F)(F)F)c2)cc1)c1ccccc1F` [Example 531, N-{4-[3-(3-Bromo-5-trifluoromethyl-phenyl)-thioureido]-phenyl}-2-fluoro-benzamide] showed an IC50 [1, 2] of 5 µg/mL (≈ 9.76 µM), an IC50 (HSV- I; Vero) greater than 10 µg/mL and an IC50 (VZV strain Ellen; Human alphaherpesvirus 3, HFF, read-out: IC50 (ug/ml) VZV, VZV strain Ellen, HFF cells, ELISA) of 6 µg/mL (≈ 11.7 µM).
`O=C(Nc1ccc(NC(=S)NCc2ccccc2)cc1)c1ccccc1F` [Example 536, N-[4-(3-Benzyl-thioureido)-phenyl]-2-fluoro-benzamide] showed an IC50 ([1]; read-out: IC50 ug/ml HCMV) greater than 10 µg/mL, an IC50 (HSV- I; HSV- I, Vero cells, ELISA) greater than 10 µg/mL and an IC50 (VZV strain Ellen; [6]) greater than 10 µg/mL.
